Assays:
[1] = test system: SARS-CoV-2; set-up: species or system Balb/c mice; conditions: mouse, in vivo
[2] = test system: Staphylococcus aureus; format: cell-based
[3] = test system: Pseudomonas aeruginosa; format: cell-based

Row | Compound | VNTs after 48 h storage with preservative [1] | antimicrobiotic activity [2] | antimicrobiotic activity [3]
1 | OCCOc1ccccc1 [Formulation 2-PE, 2-Phenoxyethanol] | more advantageous results | has antimicrobiotic activity | has antimicrobiotic activity
2 | C[CH2][Hg][S]c1ccccc1C(=O)[O-].[Na+] [Thiomersal, Natrium-2-(ethylmercurithio)benzoat] | slight decrease |  | 

From patent US20240299309A1 (priority 2020, published 2024)
